ChEMBL document CHEMBL1145861, “Selective protein tyrosine phosphatase 1B inhibitors: targeting the second phosphotyrosine binding site with non-carboxylic acid-containing ligands” (J Med Chem, 2003)

Tests used:
[1] = target: T1, Tyrosine-protein phosphatase non-receptor type 1 (Homo sapiens, UniProt P18031); test: Protein-tyrosine phosphatase 1B (PTP 1B) site 2 Ligands were identified using [13C]-labeled protein and their Dissociation Constants were determined
T1 sequence (P18031 whole entry): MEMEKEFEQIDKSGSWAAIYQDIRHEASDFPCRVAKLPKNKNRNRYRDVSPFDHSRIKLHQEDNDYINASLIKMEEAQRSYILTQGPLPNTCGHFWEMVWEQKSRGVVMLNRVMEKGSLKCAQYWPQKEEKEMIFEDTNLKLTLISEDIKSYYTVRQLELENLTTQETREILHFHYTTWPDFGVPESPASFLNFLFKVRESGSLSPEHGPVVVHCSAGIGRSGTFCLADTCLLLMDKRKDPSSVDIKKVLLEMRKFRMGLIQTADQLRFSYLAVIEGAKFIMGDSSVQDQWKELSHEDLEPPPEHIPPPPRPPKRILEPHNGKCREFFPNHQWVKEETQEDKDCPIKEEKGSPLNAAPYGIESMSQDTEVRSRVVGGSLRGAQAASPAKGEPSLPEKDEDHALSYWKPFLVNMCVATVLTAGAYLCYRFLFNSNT

[2] = target: Tyrosine-protein phosphatase non-receptor type 2 (Homo sapiens, UniProt P17706); test: Inhibitory constant against T cell protein tyrosine phosphatase; type: single protein
Tyrosine-protein phosphatase non-receptor type 2, sequence (P17706 whole entry, looked up): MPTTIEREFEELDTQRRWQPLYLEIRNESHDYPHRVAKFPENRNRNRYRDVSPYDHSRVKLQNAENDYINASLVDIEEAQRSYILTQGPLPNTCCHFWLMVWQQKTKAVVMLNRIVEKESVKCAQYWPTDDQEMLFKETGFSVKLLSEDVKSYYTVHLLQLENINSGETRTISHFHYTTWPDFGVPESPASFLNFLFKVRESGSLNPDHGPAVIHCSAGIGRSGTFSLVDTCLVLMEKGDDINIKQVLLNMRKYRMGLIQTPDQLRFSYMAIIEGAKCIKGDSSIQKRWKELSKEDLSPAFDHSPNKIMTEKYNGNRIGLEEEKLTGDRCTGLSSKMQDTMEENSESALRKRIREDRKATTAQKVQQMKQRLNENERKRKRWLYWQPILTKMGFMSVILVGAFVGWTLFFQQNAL

[3] = target: T1, Tyrosine-protein phosphatase non-receptor type 1; test: Inhibitory activity against Protein-tyrosine phosphatase 1B (PTP 1B) was determined
[4] = target: T2, M-phase inducer phosphatase 3 (Homo sapiens, UniProt P30307); test: Inhibitory activity against cell division cycle 25 degree C (Cdc25 C) was determined
T2 sequence (P30307 whole entry): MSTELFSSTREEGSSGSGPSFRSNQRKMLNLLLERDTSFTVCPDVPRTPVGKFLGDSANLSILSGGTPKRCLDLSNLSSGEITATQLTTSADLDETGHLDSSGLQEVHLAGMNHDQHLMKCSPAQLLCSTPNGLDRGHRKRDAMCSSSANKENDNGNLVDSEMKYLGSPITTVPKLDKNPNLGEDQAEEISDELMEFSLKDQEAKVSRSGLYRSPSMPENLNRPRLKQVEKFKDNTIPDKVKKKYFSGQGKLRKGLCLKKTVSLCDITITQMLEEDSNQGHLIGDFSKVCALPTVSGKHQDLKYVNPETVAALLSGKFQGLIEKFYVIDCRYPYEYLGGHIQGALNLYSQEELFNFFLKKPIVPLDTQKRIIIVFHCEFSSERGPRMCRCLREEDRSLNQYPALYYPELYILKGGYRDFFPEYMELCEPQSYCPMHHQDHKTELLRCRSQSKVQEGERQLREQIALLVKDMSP

[5] = target: T3, Receptor-type tyrosine-protein phosphatase C (Homo sapiens, UniProt P08575); test: Inhibitory activity against CD45 tyrosine phosphatase was determined
T3 sequence (P08575 whole entry): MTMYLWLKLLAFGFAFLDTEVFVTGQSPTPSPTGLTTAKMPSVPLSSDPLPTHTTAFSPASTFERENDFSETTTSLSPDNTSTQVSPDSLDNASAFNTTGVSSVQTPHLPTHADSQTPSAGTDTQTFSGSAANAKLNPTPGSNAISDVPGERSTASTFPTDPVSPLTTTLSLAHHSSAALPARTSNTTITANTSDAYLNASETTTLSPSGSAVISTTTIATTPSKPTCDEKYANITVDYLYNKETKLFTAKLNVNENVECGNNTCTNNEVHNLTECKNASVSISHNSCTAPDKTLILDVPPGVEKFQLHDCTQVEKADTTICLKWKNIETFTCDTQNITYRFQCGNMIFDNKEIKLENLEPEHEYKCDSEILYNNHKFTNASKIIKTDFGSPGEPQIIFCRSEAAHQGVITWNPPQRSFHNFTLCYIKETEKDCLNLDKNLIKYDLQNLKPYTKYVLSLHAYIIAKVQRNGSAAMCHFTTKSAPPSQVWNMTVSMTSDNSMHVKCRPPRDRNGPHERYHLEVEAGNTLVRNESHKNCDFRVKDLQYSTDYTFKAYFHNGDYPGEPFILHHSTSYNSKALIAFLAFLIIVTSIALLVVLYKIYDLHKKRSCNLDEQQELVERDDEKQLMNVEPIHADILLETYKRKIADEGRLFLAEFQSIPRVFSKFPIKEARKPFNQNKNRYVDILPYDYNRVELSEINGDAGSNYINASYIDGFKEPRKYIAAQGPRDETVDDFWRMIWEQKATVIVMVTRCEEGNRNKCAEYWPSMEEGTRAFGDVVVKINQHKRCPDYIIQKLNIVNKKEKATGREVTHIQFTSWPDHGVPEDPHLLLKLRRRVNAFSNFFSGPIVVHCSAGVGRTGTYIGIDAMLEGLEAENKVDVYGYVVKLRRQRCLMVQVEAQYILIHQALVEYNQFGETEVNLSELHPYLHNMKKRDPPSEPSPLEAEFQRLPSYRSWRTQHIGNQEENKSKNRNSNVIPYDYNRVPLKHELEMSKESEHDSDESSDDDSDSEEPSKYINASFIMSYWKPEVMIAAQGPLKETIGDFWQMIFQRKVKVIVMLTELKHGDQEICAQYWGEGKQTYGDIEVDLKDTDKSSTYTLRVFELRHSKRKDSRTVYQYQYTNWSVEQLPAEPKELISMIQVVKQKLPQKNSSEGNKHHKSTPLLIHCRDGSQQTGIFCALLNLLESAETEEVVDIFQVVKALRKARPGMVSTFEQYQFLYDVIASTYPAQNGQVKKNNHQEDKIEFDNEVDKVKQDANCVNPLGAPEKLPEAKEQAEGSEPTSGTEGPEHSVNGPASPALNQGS

[6] = Inhibitory activity against Leukocyte antigen related Tyrosine Phosphatase (Receptor linked protein tyrosine phosphatase LAR) was determined
[7] = target: Protein phosphatase 3 catalytic subunit alpha (Homo sapiens, UniProt Q08209); test: Inhibitory activity against (calcineurin) was determined
[8] = target: T2, M-phase inducer phosphatase 3; test: Inhibitory activity against Cell division cycle 25 degree C was determined

A Kd [1] of 15600 µM was found for `Cc1cc(C)c2nc(C(=O)O)ccc2c1O` in this work.
A Ki [2] of 0.065 µM was found for `CCc1cc(CC(NC(C)=O)C(=O)NCCCCOc2cccc(O)c2C(=O)OC)ccc1N(C(=O)C(=O)O)c1ccccc1C(=O)O` (stereo not drawn) in this work.
A Ki [3] of 0.13 µM and a Ki [2] of 0.12 µM were found for `CCc1cc(CC(NC(C)=O)C(=O)NCCCCOc2cccc(O)c2[N+](=O)[O-])ccc1N(C(=O)C(=O)O)c1ccccc1C(=O)O` (stereo not drawn) in this work.
A Ki [3] of 1.6 µM and a Ki [2] of 0.86 µM were found for `CCc1cc(CC(NC(C)=O)C(=O)NCCCCOc2ccccc2C(=O)OC)ccc1N(C(=O)C(=O)O)c1ccccc1C(=O)O` (stereo not drawn) in this work.
A Ki [3] of 0.37 µM and a Ki [2] of 0.83 µM were found for `CCc1cc(CC(NC(C)=O)C(=O)NCCCCOc2cccc(O)c2C(=O)NC)ccc1N(C(=O)C(=O)O)c1ccccc1C(=O)O` (stereo not drawn) in this work.
A Kd [1] of 910 µM was found for `N#Cc1cc(C(=O)O)c(O)c(Br)c1N` in this work.
A Ki [4] greater than 3 µM, a Ki [5] greater than 3 µM and a Ki [6] greater than 3 µM were found for `CCc1cc(CC(NC(C)=O)C(=O)NCCCCOc2cc(Cl)cc(O)c2C(=O)OC)ccc1N(C(=O)C(=O)O)c1ccccc1C(=O)O` (stereo not drawn) in this work. For the same compound, the Ki [3] was 0.04 µM, the Ki [7] was greater than 3 µM and the Ki [2] was 0.23 µM.
A Ki [3] of 0.042 µM and a Ki [2] of 0.073 µM were found for `CCc1cc(CC(NC(C)=O)C(=O)NCCCCOc2cccc(O)c2C(=O)O)ccc1N(C(=O)C(=O)O)c1ccccc1C(=O)O` (stereo not drawn) in this work.
A Ki [5] greater than 200 µM, a Ki [6] of 33 µM and a Ki [8] of 178 µM were found for `C=CCOC(=O)N[C@@H](Cc1ccc(N(C(=O)C(=O)O)c2ccccc2C(=O)O)cc1)C(=O)NCCCCOc1cccc(O)c1C(=O)OC` in this work. It also gave a Ki [7] greater than 200 µM and a Ki [2] of 0.47 µM.
A Ki [2] of 0.024 µM was found for `NC(=O)[C@H](Cc1ccc(C(F)(F)P(=O)(O)O)cc1)NC(=O)[C@H](CC(=O)O)NC(=O)Cc1ccc(C(F)(F)P(=O)(O)O)cc1` in this work.
A Ki [3] of 0.56 µM and a Ki [2] of 0.84 µM were found for `CCc1cc(CC(NC(C)=O)C(=O)NCCCCOc2ccc(-c3ccccc3)c(O)c2C(=O)OC)ccc1N(C(=O)C(=O)O)c1ccccc1C(=O)O` (stereo not drawn) in this work.
A Ki [3] of 0.39 µM and a Ki [2] of 2.6 µM were found for `CCc1cc(CC(NC(C)=O)C(=O)NCCCCOc2ccc(Br)c(O)c2C(=O)OC)ccc1N(C(=O)C(=O)O)c1ccccc1C(=O)O` (stereo not drawn) in this work.
A Kd [1] of 1200 µM was found for `Nc1ccc(C(=O)O)c(O)c1` [AMINOSALICYLIC ACID] in this work.
